Assay results reported in patent US20110224252A1, “NOVEL IMIDAZOLE DERIVATIVES” (SYNGENTA CROP PROTECTION, INC., priority 2007, published 2011).

Assays:
Format in all cases: in vivo
Botrytis cinerea = Botrytis cinerea / tomato / preventive (action against Botrytis on tomato); conditions: 72 h, spray, tomato plants cv. Roter Gnom, assessed 3 days after inoculation, read-out: inhibit fungal infestation
Experimental: Botrytis cinerea/Tomato/Preventive (Action Against Botrytis on Tomato) 4 weeks old tomato plants cv. Roter Gnom are treated with the formulated test compound in a spray chamber. Two days after application tomato plants are inoculated by spraying a spore suspension on the test plants. After an incubation period of 3 days at 20° C. and 95% r. h. in a greenhouse the disease incidence is assessed.

Alternaria solani = Alternaria solani / tomato / preventive (action against Alternaria on tomato); conditions: 96 h, spray, tomato plants cv. Roter Gnom, assessed 4 days after inoculation, read-out: inhibit fungal infestation
Experimental: Alternaria solani/Tomato/Preventive (Action Against Alternaria on Tomato) 4 weeks old tomato plants cv. Roter Gnom are treated with the formulated test compound in a spray chamber. Two days after application tomato plants are inoculated by spraying a spore suspension on the test plants. After an incubation period of 4 days at 22° C./18° C. and 95% r. h. in a greenhouse the disease incidence is assessed.

Septoria tritici = Septoria tritici / wheat / preventive (action against Septoria leaf spot on wheat); conditions: Zymoseptoria tritici, spray, wheat plants cv. Riband, assessed 16-18 days after inoculation, read-out: inhibits fungal infestation
Experimental: Septoria tritici/Wheat/Preventive (Action Against Septoria Leaf Spot on Wheat) 2 weeks old wheat plants cv. Riband are treated with the formulated test compound in a spray chamber. One day after application wheat plants are inoculated by spraying a spore suspension (10^6 conidia/ml) on the test plants. After an incubation period of 1 day at 22° C./21° C. and 95% r. h. plants are kept at 22° C./21° C. and 70% r.h. in a greenhouse. The disease incidence is assessed 16-18 days after inoculation.

Uncinula necator = Uncinula necator / grape / preventive (action against powdery mildew on grape); conditions: Erysiphe necator, 168 h, spray, grape seedlings cv. Gutedel, assessed 7 days after inoculation, read-out: inhibit fungal infestation
Experimental: Uncinula necator/Grape/Preventive (Action Against Powdery Mildew on Grape) 5 weeks old grape seedlings cv. Gutedel are treated with the formulated test compound in a spray chamber. One day after application grape plants are inoculated by shaking plants infected with grape powdery mildew above the test plants. After an incubation period of 7 days at 24° C./22° C. and 70% r. h. under a light regime of 14/10 h (light/dark) the disease incidence is assessed.

Puccinia recondita = Puccinia recondita / wheat / preventive (action against brown rust on wheat); conditions: 264 h, spray, wheat plants cv. Arina, assessed 11 days after inoculation, read-out: inhibit fungal infestation
Experimental: Puccinia recondita/Wheat/Preventive (Action Against Brown Rust on Wheat) 1 week old wheat plants cv. Arina are treated with the formulated test compound in a spray chamber. One day after application wheat plants are inoculated by spraying a spore suspension ([…] uredospores/ml) on the test plants. After an incubation period of 1 day at 20° C. and 95% r. h. plants are kept for 10 days 20° C./18° C. (day/night) and 60% r.h. in a greenhouse. The disease incidence is assessed 11 days after inoculation.

Measured: inhibition at 200 ppm

Clc1cnc(-n2c(Cl)nc(Cl)c2-c2ccc(Br)cc2)c(Cl)c1 [I.s.034, 2-[5-(4-Bromo-phenyl)-2,4-dichloro-imidazol-1-yl]-3,5-dichloro-pyridine]
not listed: Puccinia recondita
≥ 80%: all other assays above

Cc1nc(Cl)n(-c2ncc(Cl)cc2Cl)c1-c1ccc(Br)cc1 [I.s.035, 2-[5-(4-Bromo-phenyl)-2-chloro-4-methyl-imidazol-1-yl]-3,5-dichloro-pyridine]
not listed: Botrytis cinerea
≥ 80%: all other assays above

Cc1nc(Cl)n(-c2ncc(Cl)cc2Cl)c1-c1ccc(Cl)nc1 [I.s.210, 3,5-Dichloro-2-[2-chloro-5-(6-chloro-pyridin-3-yl)-4-methyl-imidazol-1-yl]-pyridine]
≥ 80%: Alternaria solani | Septoria tritici | Uncinula necator
